These results are taken from PMC5761851, “Application of a phenotypic drug discovery strategy to identify biological and chemical starting points for inhibition of TSLP production in lung epithelial cells” (PLoS ONE, 2018).

Common to all, as to assay: kinase selectivity panel
Common to all, as to assay type: biochemical

One test concerns the target T1, DDR2 (Homo sapiens, UniProt Q16832).
T1 construct: purchased Eurofins Pharma Discovery Services (KinaseProfiler; Cerep BioPrint panel)
T1 sequence (Q16832 22-855): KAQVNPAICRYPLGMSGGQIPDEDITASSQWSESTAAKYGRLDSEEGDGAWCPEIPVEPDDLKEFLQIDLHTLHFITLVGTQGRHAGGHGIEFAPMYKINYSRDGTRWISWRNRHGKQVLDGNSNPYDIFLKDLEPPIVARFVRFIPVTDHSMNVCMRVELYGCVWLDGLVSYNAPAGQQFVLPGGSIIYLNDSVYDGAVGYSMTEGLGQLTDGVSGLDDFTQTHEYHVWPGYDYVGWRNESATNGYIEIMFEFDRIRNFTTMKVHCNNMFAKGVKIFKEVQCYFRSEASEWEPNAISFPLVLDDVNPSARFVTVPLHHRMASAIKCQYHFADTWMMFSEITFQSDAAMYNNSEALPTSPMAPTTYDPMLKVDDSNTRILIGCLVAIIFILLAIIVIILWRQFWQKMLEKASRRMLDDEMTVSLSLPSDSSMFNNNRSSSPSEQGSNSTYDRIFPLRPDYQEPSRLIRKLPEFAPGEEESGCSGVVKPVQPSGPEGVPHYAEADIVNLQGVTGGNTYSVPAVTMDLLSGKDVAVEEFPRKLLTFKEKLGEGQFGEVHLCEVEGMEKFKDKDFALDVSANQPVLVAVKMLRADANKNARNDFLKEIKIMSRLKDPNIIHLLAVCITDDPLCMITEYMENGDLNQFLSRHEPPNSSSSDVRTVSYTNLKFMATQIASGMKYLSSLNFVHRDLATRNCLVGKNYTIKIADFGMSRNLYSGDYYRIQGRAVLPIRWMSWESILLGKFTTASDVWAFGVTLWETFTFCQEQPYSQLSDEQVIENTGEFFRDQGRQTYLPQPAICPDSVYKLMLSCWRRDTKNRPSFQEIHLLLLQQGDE
The following applies: for remaining activity at 10 µM: read-out: percentage of control activity (POC), DDR2. A digest of the protocol:
(§1)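 IC50 values derive from 9 duplicate concentrations, run only for activities picked after an initial 10 μM duplicate screen across 125 representative kinases.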

The target of the next test is T2, Flt3 (Homo sapiens, UniProt P36888).
T2 construct: purchased Eurofins Pharma Discovery Services (KinaseProfiler; Cerep BioPrint panel)
T2 sequence (P36888 27-993): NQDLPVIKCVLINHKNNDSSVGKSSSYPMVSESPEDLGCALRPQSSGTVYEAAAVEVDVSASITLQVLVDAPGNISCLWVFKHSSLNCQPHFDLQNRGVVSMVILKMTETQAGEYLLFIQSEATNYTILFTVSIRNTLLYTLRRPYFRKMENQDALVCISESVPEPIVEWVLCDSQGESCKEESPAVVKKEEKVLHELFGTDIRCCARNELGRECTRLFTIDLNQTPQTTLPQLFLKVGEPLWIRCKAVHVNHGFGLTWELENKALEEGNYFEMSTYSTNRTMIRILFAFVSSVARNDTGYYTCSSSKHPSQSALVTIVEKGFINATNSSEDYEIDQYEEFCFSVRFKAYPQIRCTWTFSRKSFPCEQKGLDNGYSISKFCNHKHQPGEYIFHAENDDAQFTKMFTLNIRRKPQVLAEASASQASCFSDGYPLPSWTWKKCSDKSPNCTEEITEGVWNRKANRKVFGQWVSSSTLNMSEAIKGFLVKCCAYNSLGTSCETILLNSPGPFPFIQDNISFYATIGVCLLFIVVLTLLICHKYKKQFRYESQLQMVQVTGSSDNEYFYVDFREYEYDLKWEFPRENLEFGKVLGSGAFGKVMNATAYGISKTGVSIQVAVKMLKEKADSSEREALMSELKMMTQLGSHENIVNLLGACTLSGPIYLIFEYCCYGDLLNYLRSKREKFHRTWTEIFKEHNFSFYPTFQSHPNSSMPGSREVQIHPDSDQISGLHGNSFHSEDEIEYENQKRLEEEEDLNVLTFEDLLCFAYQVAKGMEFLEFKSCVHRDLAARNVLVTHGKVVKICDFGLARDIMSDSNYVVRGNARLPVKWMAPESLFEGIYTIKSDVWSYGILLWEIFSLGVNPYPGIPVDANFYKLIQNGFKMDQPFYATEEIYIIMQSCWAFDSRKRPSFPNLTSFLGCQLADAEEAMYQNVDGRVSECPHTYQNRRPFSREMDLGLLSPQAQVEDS
The following applies: read-out: percentage of control activity (POC), Flt3. A digest of the protocol: as §1

Another test deals with T3, SRPK1 (Homo sapiens, UniProt Q96SB4).
T3 construct: purchased Eurofins Pharma Discovery Services (KinaseProfiler; Cerep BioPrint panel)
T3 sequence (Q96SB4 whole entry): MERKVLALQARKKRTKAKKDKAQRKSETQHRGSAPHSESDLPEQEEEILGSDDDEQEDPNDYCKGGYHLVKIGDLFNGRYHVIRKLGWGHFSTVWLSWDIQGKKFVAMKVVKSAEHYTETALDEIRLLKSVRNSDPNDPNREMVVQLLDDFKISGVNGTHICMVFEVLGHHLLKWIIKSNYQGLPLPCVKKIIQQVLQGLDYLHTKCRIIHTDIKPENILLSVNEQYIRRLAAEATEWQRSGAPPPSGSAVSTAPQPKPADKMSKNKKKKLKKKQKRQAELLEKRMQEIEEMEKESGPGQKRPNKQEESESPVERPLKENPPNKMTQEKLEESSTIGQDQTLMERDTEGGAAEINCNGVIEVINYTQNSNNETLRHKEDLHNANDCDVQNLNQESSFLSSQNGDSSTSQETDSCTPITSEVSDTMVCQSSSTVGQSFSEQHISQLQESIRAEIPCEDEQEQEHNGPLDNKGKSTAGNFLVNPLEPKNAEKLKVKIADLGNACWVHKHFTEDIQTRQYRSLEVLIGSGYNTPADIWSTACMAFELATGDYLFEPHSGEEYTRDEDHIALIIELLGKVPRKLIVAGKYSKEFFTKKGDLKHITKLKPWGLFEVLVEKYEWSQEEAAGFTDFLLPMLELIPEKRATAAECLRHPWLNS
Conditions: read-out: percentage of control activity (POC), SRPK1. A digest of the protocol: as §1

Another test addresses T4, Fms (Homo sapiens, UniProt P07333).
T4 construct: purchased Eurofins Pharma Discovery Services (KinaseProfiler; Cerep BioPrint panel)
Conditions: for remaining activity at 10 µM: read-out: percentage of control activity (POC), Fms. A digest of the protocol: as §1

The next test concerns the target T5, Aurora-A (Homo sapiens, UniProt O14965).
T5 construct: purchased Eurofins Pharma Discovery Services (KinaseProfiler; Cerep BioPrint panel)
T5 sequence (O14965 1-403): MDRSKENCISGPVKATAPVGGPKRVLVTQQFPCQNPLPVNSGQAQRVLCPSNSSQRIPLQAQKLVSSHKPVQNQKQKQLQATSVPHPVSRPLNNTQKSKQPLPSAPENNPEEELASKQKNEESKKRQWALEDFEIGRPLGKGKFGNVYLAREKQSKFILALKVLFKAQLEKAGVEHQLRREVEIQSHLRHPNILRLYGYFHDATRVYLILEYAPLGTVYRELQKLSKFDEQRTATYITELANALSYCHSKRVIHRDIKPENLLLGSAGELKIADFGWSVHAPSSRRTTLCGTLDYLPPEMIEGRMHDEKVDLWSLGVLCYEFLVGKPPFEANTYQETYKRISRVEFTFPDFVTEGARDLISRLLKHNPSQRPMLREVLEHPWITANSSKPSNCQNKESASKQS
The following applies: read-out: percentage of control activity (POC), Aurora-A. A digest of the protocol:
as §1

Molecules are shown by their SMILES.

T4 sequence (P07333 20-972): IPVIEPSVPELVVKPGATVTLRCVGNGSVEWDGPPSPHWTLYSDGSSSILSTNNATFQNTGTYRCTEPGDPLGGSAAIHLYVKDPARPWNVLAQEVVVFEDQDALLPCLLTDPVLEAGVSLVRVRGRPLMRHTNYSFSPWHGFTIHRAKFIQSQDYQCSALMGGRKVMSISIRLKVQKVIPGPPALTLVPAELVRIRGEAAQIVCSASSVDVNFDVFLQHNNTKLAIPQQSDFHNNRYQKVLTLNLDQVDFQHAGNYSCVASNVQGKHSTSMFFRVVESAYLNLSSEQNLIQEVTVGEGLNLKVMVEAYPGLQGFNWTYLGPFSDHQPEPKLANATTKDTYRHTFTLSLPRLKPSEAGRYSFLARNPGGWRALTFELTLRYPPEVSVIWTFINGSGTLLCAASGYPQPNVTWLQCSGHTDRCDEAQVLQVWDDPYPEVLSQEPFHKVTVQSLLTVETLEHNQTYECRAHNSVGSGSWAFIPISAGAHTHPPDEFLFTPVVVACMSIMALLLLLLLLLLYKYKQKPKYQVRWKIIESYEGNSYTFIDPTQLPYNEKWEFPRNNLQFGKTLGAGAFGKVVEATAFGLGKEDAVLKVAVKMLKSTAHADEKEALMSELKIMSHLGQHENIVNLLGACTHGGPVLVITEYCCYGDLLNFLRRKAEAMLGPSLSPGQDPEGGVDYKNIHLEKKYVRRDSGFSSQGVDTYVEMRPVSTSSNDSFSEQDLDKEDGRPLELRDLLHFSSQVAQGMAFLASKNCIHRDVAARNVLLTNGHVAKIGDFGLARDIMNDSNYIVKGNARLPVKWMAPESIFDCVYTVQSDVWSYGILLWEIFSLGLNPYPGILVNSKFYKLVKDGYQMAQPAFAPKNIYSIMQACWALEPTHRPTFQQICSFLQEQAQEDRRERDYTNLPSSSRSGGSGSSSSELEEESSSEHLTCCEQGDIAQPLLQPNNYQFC

Take `CC(C)(C)N1CCC(c2cc(-c3ccc(F)cc3Cl)c3cc[n+]([O-])c(-c4c(Cl)cccc4Cl)c3n2)CC1` [compound 2]: the remaining activity at 10 µM at DDR2 came out at 94%; on Flt3 it was 104%; at SRPK1 it was 103%; at Fms it was 100%; on Aurora-A, 112%.
A word on the inhibition: it is the relative decrease from the control value, in per cent. In the case of `Cc1ccc(C(=O)NCC2CC2)cc1-c1ccc2c(c1)NC(=O)C21CCCC1` [compound 3], the remaining activity at 10 µM at DDR2 stood at 71%; at Flt3 it was 110%; on SRPK1, 92%; at Fms it was 47%; on Aurora-A, 96%. Further, 10 µM produced 53% inhibition at Fms.
On to `Cn1cc(-c2cccc(-c3nc(C(=O)NC4C5CC6CC4CC(O)(C6)C5)c(N)nc3N)c2)cn1` (centres unmarked) [compound 4], for which at 10 µM the inhibition on DDR2 was 53%. In addition, the remaining activity at 10 µM was 47% on DDR2; 95% at Flt3; 92% at SRPK1; 63% on Fms; 89% on Aurora-A.
For the compound `CS(=O)(=O)N1CCN(c2ccc(Nc3ncc(C(N)=O)c(NC4CC4)n3)cc2)CC1` [compound 5], the remaining activity at 10 µM is 28% at DDR2; 1% at Flt3; 83% at SRPK1; -2% at Fms; 2% on Aurora-A.
With `COc1c(NC(=O)c2ccc(C)c(-c3nnc4c(NCC(C)(C)C)nccn34)c2)cc(C(C)(C)C)cc1NS(C)(=O)=O` [compound 7, reference compound], the inhibition at 10 µM on DDR2 stood at 97%; against Fms, 74%. Moreover, the remaining activity at 10 µM at DDR2 came out at 3%; at Flt3, 110%; at SRPK1 it was 100%; at Fms it was 26%; on Aurora-A it was 110%.
